This passage reports IC50 and viability, T/C results from PubChem BioAssay AID1963450 (Molecular Pharmacology Branch, DTP, NCI, 2024).

The test system of the assay is 556581-035-R-J1-PDC complex spheroid growth. As to the kind of experiment: Anticancer human tumor 556581-035-R-J1-PDC patient-derived ovarian carcinoma cell line growth inhibition [Asc]. The note with it: for viability, T/C: stronger effect = lower value. The method, boiled down: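 Stromal components (HUVEC and hMSC) are co-assembled with the cancer cells into multicellular spheroids. Drugs are then added singly or paired, at concentrations falling by half-log increments from a clinically achievable maximum, capped at 10 microM without known Cmax.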

The mark [1] stands for this setting: curve of first compound, second compound 0.1 µM.
Setting [2] is: curve of first compound, second compound 0.316 µM.
The mark [3] stands for this setting: curve of first compound, second compound 1 µM.
The mark [4] stands for this setting: curve of first compound, second compound 3.16 µM.
[5] abbreviates: curve of first compound, second compound 10 µM.
Setting [6] is: second compound 0.1 µM, first compound 0.00316 µM.
The mark [7] stands for this setting: second compound 0.1 µM, first compound 0.01 µM.
Setting [8] is: second compound 0.1 µM, first compound 0.0316 µM.
The mark [9] stands for this setting: second compound 0.1 µM, first compound 0.1 µM.
[10] abbreviates: second compound 0.1 µM, first compound 0.316 µM.
Setting [11] is: second compound 0.1 µM, first compound 1 µM.
The mark [12] stands for this setting: second compound 0.316 µM, first compound 0.00316 µM.
Setting [13] is: second compound 0.316 µM, first compound 0.01 µM.
The mark [14] stands for this setting: second compound 0.316 µM, first compound 0.0316 µM.
Where [15] appears, read: second compound 0.316 µM, first compound 0.1 µM.
[16] abbreviates: second compound 0.316 µM, first compound 0.316 µM.
Where [17] appears, read: second compound 0.316 µM, first compound 1 µM.
Setting [18] is: second compound 1 µM, first compound 0.00316 µM.
Where [19] appears, read: second compound 1 µM, first compound 0.01 µM.
Where [20] appears, read: second compound 1 µM, first compound 0.0316 µM.
Where [21] appears, read: second compound 1 µM, first compound 0.1 µM.
Setting [22] is: second compound 1 µM, first compound 0.316 µM.
Where [23] appears, read: second compound 1 µM, first compound 1 µM.
The mark [24] stands for this setting: second compound 3.16 µM, first compound 0.00316 µM.
The mark [25] stands for this setting: second compound 3.16 µM, first compound 0.01 µM.
The mark [26] stands for this setting: second compound 3.16 µM, first compound 0.0316 µM.
[27] abbreviates: second compound 3.16 µM, first compound 0.1 µM.
[28] abbreviates: second compound 10 µM, first compound 0.00316 µM.
Setting [29] is: second compound 10 µM, first compound 0.01 µM.
The mark [30] stands for this setting: second compound 10 µM, first compound 0.0316 µM.
[31] abbreviates: second compound 10 µM, first compound 0.1 µM.

“And” between values parts separate entries of the source, which are not always exact repeats. Identical values can stand only once.
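Further: spheroids exposed to agents for 7 days before viability read.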

As a reminder, the IC50 is the midpoint of a concentration-inhibition curve. One may read the viability, T/C as the result in the treated group divided by that in the control group, in per cent. In the case of `O=C(c1ccc(F)c(F)c1Nc1ccc(I)cc1F)N1CC(O)([C@@H]2CCCCN2)C1` + Cc1c(S(C)(=O)=O)c(-c2cc(F)cc(N3CCN(c4ccc(NS(=O)(=O)c5ccc(NC(CCN6CCC(C(=O)OCCCP(=O)(O)O)CC6)CSc6ccccc6)c(S(=O)(=O)C(F)(F)F)c5)cc4)CC3)c2)c(-c2ccc(Cl)cc2)n1C(C)C, the IC50 is 92.9 nM under setting [1]; 55.4 nM under setting [2]; 44 nM under setting [3]; 56.6 nM under setting [4]; 4.93 nM under setting [5]. The viability, T/C is 73% under setting [6]; 66.8% under setting [7]; 72.6% under setting [8]; 44.9% under setting [9]; 23.8% under setting [10]; 4.45% under setting [11]. In addition, the viability, T/C reads like this: under setting [12], 59.6%; under setting [13], 58.8%; under setting [14], 61.6%; under setting [15], 39.4%; under setting [16], 21.6%; under setting [17], 25.9%. Also, the viability, T/C reads like this: under setting [18], 70%; under setting [19], 73.7%; under setting [20], 57.1%; under setting [21], 29.5%; under setting [22], 8.66%; under setting [23], 1.82%. The viability, T/C under setting [24] is 67.7%; the viability, T/C under setting [25] is 54.5%; the viability, T/C under setting [26] is 57.4%; the viability, T/C under setting [27] is 45.5%; the viability, T/C (second compound 3.16 µM, first compound 0.316 µM) is 22.3%; the viability, T/C (second compound 3.16 µM, first compound 1 µM) was 4.54%. The viability, T/C by setting is: under setting [28], 49.6%; under setting [29], 51.9%; under setting [30], 40.5%; under setting [31], 15.2%; (second compound 10 µM, first compound 0.316 µM) 38.4%; (second compound 10 µM, first compound 1 µM) 16%.

`C=CC(=O)N1CCN(c2nc(=O)n(-c3c(C)ccnc3C(C)C)c3nc(-c4c(O)cccc4F)c(F)cc23)C(C)C1` (centres undefined) + CNC(C)C(=O)NC1CN(S(=O)(=O)c2cccc(S(=O)(=O)N3CCC4CCC(C(=O)NC(c5ccccc5)c5ccccc5)N4C(=O)C(NC(=O)C(C)NC)C3)c2)CCC2CCC(C(=O)NC(c3ccccc3)c3ccccc3)N2C1=O: the concentration for half-maximal inhibition (IC50) (curve of first compound, second compound 0.01 µM) is greater than 10000 nM; the IC50 (curve of first compound, second compound 0.0316 µM) is greater than 10000 nM; the IC50 under setting [1] is greater than 10000 nM; the IC50 under setting [2] was greater than 10000 nM; the half-maximal inhibitory concentration (IC50) under setting [3] is greater than 10000 nM. Also, the viability, T/C runs as follows: (second compound 0.01 µM, first compound 0.0316 µM) 88.6%; (second compound 0.01 µM, first compound 0.1 µM) 90%; (second compound 0.01 µM, first compound 0.316 µM) 82.4%; (second compound 0.01 µM, first compound 1 µM) 101%; (second compound 0.01 µM, first compound 3.16 µM) 103%; (second compound 0.01 µM, first compound 10 µM) 86.5%. In addition, the viability, T/C (second compound 0.0316 µM, first compound 0.0316 µM) was 95%; the viability, T/C (second compound 0.0316 µM, first compound 0.1 µM) was 98%; the viability, T/C (second compound 0.0316 µM, first compound 0.316 µM) is 83%; the viability, T/C (second compound 0.0316 µM, first compound 1 µM) is 91.5%; the viability, T/C (second compound 0.0316 µM, first compound 3.16 µM) was 94.3%; the viability, T/C (second compound 0.0316 µM, first compound 10 µM) is 78.8%. For the same compound, the viability, T/C by setting is: under setting [8], 98.3%; under setting [9], 81.5%; under setting [10], 89.1%; under setting [11], 95.3%; (second compound 0.1 µM, first compound 3.16 µM) 91.3%; (second compound 0.1 µM, first compound 10 µM) 100%. Also, the viability, T/C was 92.3% under setting [14]; 85.2% under setting [15]; 94.2% under setting [16]; 79.8% under setting [17]; 78.9% (second compound 0.316 µM, first compound 3.16 µM); 81.4% (second compound 0.316 µM, first compound 10 µM). For the same compound, the viability, T/C by setting is: under setting [20], 79.5%; under setting [21], 71.5%; under setting [22], 86.3%; under setting [23], 74.8%; (second compound 1 µM, first compound 3.16 µM) 87.2%; (second compound 1 µM, first compound 10 µM) 66.5%.

As for `C=C(F)C(=O)N1CCN(c2nc(OCC3CCCN3C)nc3c2CCN(c2cccc4cccc(Cl)c24)C3)CC1CC#N` (centres undefined), the viability, T/C reads like this: (compound 0.0316 µM) 77.9% and 98.7% and 100%; (compound 0.1 µM) 113% and 115% and 91.5%; (compound 0.316 µM) 102% and 110% and 95%; (compound 1 µM) 90.5% and 87% and 93.3%; (compound 3.16 µM) 48.4% and 64.9% and 55.1%; (compound 10 µM) 15% and 3.22% and 1%. The 50% inhibitory concentration (IC50) (curve of compound) is 3020 nM and 4070 nM and 3520 nM.

`CNC(C)C(=O)NC1CN(S(=O)(=O)c2cccc(S(=O)(=O)N3CCC4CCC(C(=O)NC(c5ccccc5)c5ccccc5)N4C(=O)C(NC(=O)C(C)NC)C3)c2)CCC2CCC(C(=O)NC(c3ccccc3)c3ccccc3)N2C1=O` (centres undefined): the viability, T/C is, setting by setting: (compound 0.00316 µM) 96.2% and 82.3% and 87.2%; (compound 0.0316 µM) 89.3% [middle of 14 runs]; (compound 0.316 µM) 74.3% [middle of 14 runs]. Besides, the IC50 is greater than 1000 nM (compound alone, run of 10/24/2022); greater than 1000 nM (compound alone, run of 11/15/2022); greater than 1000 nM (curve of compound).

Turning to `NC1CCC(NC2CC2c2ccccc2)CC1` (centres undefined) + Cc1c(S(C)(=O)=O)c(-c2cc(F)cc(N3CCN(c4ccc(NS(=O)(=O)c5ccc(NC(CCN6CCC(C(=O)OCCCP(=O)(O)O)CC6)CSc6ccccc6)c(S(=O)(=O)C(F)(F)F)c5)cc4)CC3)c2)c(-c2ccc(Cl)cc2)n1C(C)C, the IC50 reads like this: under setting [1], greater than 100 nM; under setting [2], greater than 100 nM; under setting [3], greater than 100 nM; under setting [4], greater than 100 nM; under setting [5], greater than 100 nM. Also, the viability, T/C reads like this: (second compound 0.1 µM, first compound 0.000316 µM) 74.9%; (second compound 0.1 µM, first compound 0.001 µM) 90.3%; under setting [6], 64.5%; under setting [7], 77.2%; under setting [8], 75.6%; under setting [9], 76.9%. The viability, T/C is 74% (second compound 0.316 µM, first compound 0.000316 µM); 83.3% (second compound 0.316 µM, first compound 0.001 µM); 67.2% under setting [12]; 82.5% under setting [13]; 80.5% under setting [14]; 75.5% under setting [15]. In addition, the viability, T/C (second compound 1 µM, first compound 0.000316 µM) was 62.9%; the viability, T/C (second compound 1 µM, first compound 0.001 µM) is 64%; the viability, T/C under setting [18] was 67.8%; the viability, T/C under setting [19] was 64.8%; the viability, T/C under setting [20] is 62.4%; the viability, T/C under setting [21] was 56.4%. In addition, the viability, T/C is 58.8% (second compound 3.16 µM, first compound 0.000316 µM); 73.7% (second compound 3.16 µM, first compound 0.001 µM); 64.5% under setting [24]; 54.4% under setting [25]; 71.9% under setting [26]; 58.2% under setting [27]. In addition, the viability, T/C (second compound 10 µM, first compound 0.000316 µM) is 61.5%; the viability, T/C (second compound 10 µM, first compound 0.001 µM) was 57.2%; the viability, T/C under setting [28] was 56.8%; the viability, T/C under setting [29] is 50.1%; the viability, T/C under setting [30] is 69.5%; the viability, T/C under setting [31] is 63.4%.

On to `Cc1c(S(C)(=O)=O)c(-c2cc(F)cc(N3CCN(c4ccc(NS(=O)(=O)c5ccc(NC(CCN6CCC(C(=O)OCCCP(=O)(O)O)CC6)CSc6ccccc6)c(S(=O)(=O)C(F)(F)F)c5)cc4)CC3)c2)c(-c2ccc(Cl)cc2)n1C(C)C` (centres undefined), for which the viability, T/C runs as follows: (compound 0.1 µM) 80.6% [middle of 14 runs]; (compound 0.316 µM) 73.5% [middle of 14 runs]; (compound 1 µM) 66.1% [middle of 14 runs]; (compound 3.16 µM) 66.3% [middle of 14 runs]; (compound 10 µM) 61.9% [middle of 14 runs]. The IC50 (compound alone, run of 10/11/2022) is greater than 10000 nM.
